The supplement of paper PMC8617591

Assays:
[1] = tested on: Mycobacterium tuberculosis Erdman (autoluminescent); experiment: total FIC50 (Loewe) at 50% inhibition, three-drug combination (log2); higher = more antagonistic
Method: (§1)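 DiaMOND equipotent three-drug combination dose responses (10 doses, 1.5- or 2-fold spacing, centred on IC90) against autoluminescent M. tuberculosis Erdman in 8 in vitro models. Read-out is OD600, or luminescence for the intracellular and dormancy models, normalised to untreated wells. Hill-fit Einf, AUC25 and GRinf are potency metrics; FIC50 and FIC90 are total Loewe fractional inhibitory concentrations as log2 (negative = synergy).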

[2] = tested on: Mycobacterium tuberculosis Erdman (autoluminescent); experiment: total FIC90 (Loewe) at 90% inhibition, three-drug combination (log2); higher = more antagonistic
Method: as §1

[3] = tested on: Mycobacterium tuberculosis Erdman (autoluminescent); experiment: Einf, fitted maximum growth inhibition of three-drug combination (fraction); higher = stronger maximal inhibition
Method: as §1

[4] = tested on: Mycobacterium tuberculosis Erdman (autoluminescent); experiment: AUC25, normalised area under dose response up to IC25 (three-drug combination) (fraction (0-1)); higher = more potent at low dose
Method: as §1

[5] = tested on: Mycobacterium tuberculosis Erdman (autoluminescent); experiment: GRinf, maximum normalised growth rate inhibition (three-drug combination) (unitless (-1 to 1)); higher = less effect (negative = killing)
Method: as §1

COc1nc2ccc(Br)cc2cc1[C@@H](c1ccccc1)[C@@](O)(CCN(C)C)c1cccc2ccccc12 [bedaquiline] + NNC(=O)c1ccncc1 [isoniazid] + COc1c(N2C[C@@H]3CCCN[C@@H]3C2)c(F)cc2c(=O)c(C(=O)O)cn(C3CC3)c12 [moxifloxacin]
Conditions | AUC25, [4] | Einf, [3] | GRinf, [5] | total FIC50, [1] | total FIC90, [2]
in vitro model: acidic pH 5.7, time point: constant (~7 days, model-specific) | 0.098 | 0.7 | -0.325 | 0.527 | –
in vitro model: acidic pH 5.7, time point: terminal (~4-5 doublings, model-specific) | 0.0943 | 0.958 | -0.313 | 0.604 | 0.776
in vitro model: intracellular J774, time point: constant = terminal | – | 0.972 | -0.784 | – | 1.2

Conditions | AUC25, [4] | Einf, [3] | GRinf, [5] | total FIC50, [1] | total FIC90, [2]
in vitro model: butyrate, time point: constant (~7 days, model-specific) | 0.0762 | 0.94 | -0.0717 | 0.776 | 0.906
in vitro model: butyrate, time point: terminal (~4-5 doublings, model-specific) | 0.0478 | 0.973 | -0.0805 | 0.672 | 0.575
in vitro model: cholesterol 0.05 mM, time point: constant (~7 days, model-specific) | 0.0995 | 0.742 | -0.202 | 0.612 | –
in vitro model: cholesterol 0.05 mM, time point: terminal (~4-5 doublings, model-specific) | 0.0886 | 0.923 | -0.178 | 0.549 | -0.479
in vitro model: cholesterol-high 0.2 mM, time point: constant (~7 days, model-specific) | 0.0861 | 0.952 | -0.436 | 0.394 | 0.57
in vitro model: cholesterol-high 0.2 mM, time point: terminal (~4-5 doublings, model-specific) | 0.0461 | 0.991 | -0.601 | 0.581 | 0.234
in vitro model: dormancy (butyrate + nitrate, low O2), time point: constant (~7 days, model-specific) | 0.0686 | 0.938 | 0.161 | 0.895 | 0.336
in vitro model: dormancy (butyrate + nitrate, low O2), time point: terminal (~4-5 doublings, model-specific) | 0.0705 | 0.997 | -0.252 | 0.646 | 0.782
in vitro model: standard 7H9 glycerol, time point: constant = terminal | 0.0816 | 0.987 | -0.154 | 0.375 | 0.614
in vitro model: valerate, time point: constant (~7 days, model-specific) | 0.1 | 0.925 | -0.134 | 0.901 | –
in vitro model: valerate, time point: terminal (~4-5 doublings, model-specific) | 0.067 | 0.949 | -0.0225 | 0.672 | 1.33

COc1nc2ccc(Br)cc2cc1[C@@H](c1ccccc1)[C@@](O)(CCN(C)C)c1cccc2ccccc12 [bedaquiline] + NNC(=O)c1ccncc1 [isoniazid] + NC(=O)c1cnccn1 [pyrazinamide]
Conditions | AUC25, [4] | Einf, [3] | GRinf, [5] | total FIC50, [1] | total FIC90, [2]
in vitro model: acidic pH 5.7, time point: constant (~7 days, model-specific) | 0.0904 | 0.873 | -0.529 | 0.0123 | –
in vitro model: acidic pH 5.7, time point: terminal (~4-5 doublings, model-specific) | 0.0797 | 0.981 | -0.413 | 0.0722 | 0.15
in vitro model: intracellular J774, time point: constant = terminal | – | 0.987 | -0.53 | – | 0.651

Conditions | AUC25, [4] | Einf, [3] | GRinf, [5] | total FIC50, [1] | total FIC90, [2]
in vitro model: butyrate, time point: constant (~7 days, model-specific) | 0.0809 | 0.949 | -0.109 | 0.406 | 0.726
in vitro model: butyrate, time point: terminal (~4-5 doublings, model-specific) | 0.0598 | 0.978 | -0.0731 | 0.373 | 0.404
in vitro model: cholesterol 0.05 mM, time point: constant (~7 days, model-specific) | 0.103 | 0.726 | -0.236 | – | –
in vitro model: cholesterol 0.05 mM, time point: terminal (~4-5 doublings, model-specific) | 0.102 | 0.935 | -0.279 | 0.232 | –
in vitro model: cholesterol-high 0.2 mM, time point: constant (~7 days, model-specific) | 0.0921 | 0.995 | -0.637 | 0.548 | –
in vitro model: cholesterol-high 0.2 mM, time point: terminal (~4-5 doublings, model-specific) | 0.068 | 1 | -0.598 | 0.805 | 0.505
in vitro model: dormancy (butyrate + nitrate, low O2), time point: constant (~7 days, model-specific) | 0.0789 | 0.922 | 0.125 | -0.318 | -0.645
in vitro model: dormancy (butyrate + nitrate, low O2), time point: terminal (~4-5 doublings, model-specific) | 0.0524 | 0.992 | -0.123 | 0.063 | -0.625
in vitro model: standard 7H9 glycerol, time point: constant = terminal | 0.0575 | 0.957 | -0.0565 | 0.231 | –
in vitro model: valerate, time point: constant (~7 days, model-specific) | 0.0999 | 0.847 | 0.0396 | 0.527 | –
in vitro model: valerate, time point: terminal (~4-5 doublings, model-specific) | 0.0629 | 0.953 | -0.0326 | 0.64 | 1.01

COc1nc2ccc(Br)cc2cc1[C@@H](c1ccccc1)[C@@](O)(CCN(C)C)c1cccc2ccccc12 [bedaquiline] + NNC(=O)c1ccncc1 [isoniazid] + O=[N+]([O-])c1cn2c(n1)OC[C@@H](OCc1ccc(OC(F)(F)F)cc1)C2 [pretomanid]
Conditions | AUC25, [4] | Einf, [3] | GRinf, [5] | total FIC50, [1] | total FIC90, [2]
in vitro model: acidic pH 5.7, time point: constant (~7 days, model-specific) | 0.13 | 0.923 | -0.789 | 0.219 | –
in vitro model: acidic pH 5.7, time point: terminal (~4-5 doublings, model-specific) | 0.108 | 0.988 | -0.439 | 0.209 | 0.765
in vitro model: intracellular J774, time point: constant = terminal | – | 0.996 | -0.588 | – | 0.892

Conditions | AUC25, [4] | Einf, [3] | GRinf, [5] | total FIC50, [1] | total FIC90, [2]
in vitro model: butyrate, time point: constant (~7 days, model-specific) | 0.0753 | 0.947 | -0.112 | 1.04 | 1.16
in vitro model: butyrate, time point: terminal (~4-5 doublings, model-specific) | 0.0523 | 0.975 | -0.0872 | 0.897 | 0.889
in vitro model: cholesterol 0.05 mM, time point: constant (~7 days, model-specific) | 0.0895 | 0.722 | -0.21 | 0.775 | –
in vitro model: cholesterol 0.05 mM, time point: terminal (~4-5 doublings, model-specific) | 0.0672 | 0.924 | -0.246 | 6.17 | 0.608
in vitro model: cholesterol-high 0.2 mM, time point: constant (~7 days, model-specific) | 0.0717 | 0.887 | -0.196 | 0.37 | –
in vitro model: cholesterol-high 0.2 mM, time point: terminal (~4-5 doublings, model-specific) | 0.0327 | 0.992 | -0.535 | 0.584 | 0.0623
in vitro model: dormancy (butyrate + nitrate, low O2), time point: constant (~7 days, model-specific) | 0.0674 | 0.924 | 0.224 | -0.188 | -0.985
in vitro model: dormancy (butyrate + nitrate, low O2), time point: terminal (~4-5 doublings, model-specific) | 0.0671 | 0.994 | -0.159 | -0.769 | -0.523
in vitro model: standard 7H9 glycerol, time point: constant = terminal | 0.0757 | 0.966 | -0.103 | 0.177 | 0.0648
in vitro model: valerate, time point: constant (~7 days, model-specific) | 0.129 | 0.886 | -0.333 | 0.632 | 1.13
in vitro model: valerate, time point: terminal (~4-5 doublings, model-specific) | 0.109 | 0.953 | -0.161 | 0.661 | 1.97
